Results from patent publication US9718805B2, “Triazole compounds and their use as gamma secretase modulators” (Acturum Life Science AB, priority 2013, dated 2017).

Key:
[1] = test system: Aβ42 formation in HEK cell line stably expressing APP with the Swedish mutation (APPswe); experiment: HEK assay (Aβ42 secreted to cell medium, Meso Scale electrochemiluminescence); format: cell-based; conditions: Homo sapiens, HEK293; HEK cells expressing APPswe; 4-6 hours incubation with test compound; read-out: pIC50 Aβ42 HEK assay (converted)
Method: (§1) The level of activity of the compounds on Aβ formation was tested using the following methods:
Compounds were diluted in 100% DMSO and stored at 20° C. prior to use. Human Embryonic Kidney (HEK) cell line stably expressing APP with the Swedish mutation (APPswe) was cultured using Dulbecco's Modified Eagles medium (DMEM) supplied with […] glucose, Na-pyruvate and GlutaMAX, 10% Foetal bovine serum, 100 U/mL penicillin-streptomycin (PEST), 1× non-essential amino acids (NEAA), […] Hepes, 100 μg/mL Zeocine. Cells at about 80% confluence were washed with PBS, detached from culture flasks using 1×Trypsin/EDTA diluted in PBS, re-suspended in cell media and plated in 384-well poly-d-lysine coated cell culture plates at about 10000-15000 cells/well, in 25 μL cell media. Optionally, cryo-preserved cells (frozen and stored at −140° C. in 90% cell media and 10% DMSO) were thawed, washed and plated as above. Next the cells were incubated for 15-24 h at 37° C. and 5% CO2, after which cell medium was changed. Fresh medium containing test compound diluted ×200 from prepared compound plate was added to the cells before further incubation for 4-6 hours at 37° C. and 5% CO2. After incubation with test compound the amount of Aβ peptides, including Aβ42, Aβ40, Aβ39, Aβ38 and Aβ37, secreted to cell medium was analyzed using the electrochemiluminescence assay technology from Meso Scale Discovery Technology, in combination with specific antibodies raised against the different Aβ peptides. Potential cytotoxic effects of the compounds were assayed by measuring the ATP content (ViaLight) from cell lysate.

[2] = test system: Aβ42 formation in primary cortical neuronal cells (PCN); experiment: PCN assay (Aβ42 secreted by primary cortical neuronal cells, ELISA); format: cell-based; conditions: mouse primary cortical neuronal cells; 16-20 hours incubation with test compound; read-out: pIC50 Aβ42 PCN assay (converted)
Method: as §1
Compounds were diluted in 100% DMSO and stored at 20° C. prior to use. Primary cortical neuronal cells (PCN) were isolated from 16-day mouse embryos and cultured in Ham's F12 media containing 10% Foetal bovine serum, 10 mM Hepes, 2 mM L-glutamine and 100 U/ml Penicillin-Streptomycin. 150000-250000 cells/well, in 200 μl cell media were seeded onto 96-well poly-D-Lysine coated plates. After incubation at 37° C., 5% CO2 for five days, the media was exchanged for fresh medium containing test compound diluted ×100, before further incubation for 16-20 hours at 37° C. and 5% CO2. After incubation with test compound the amount of Aβ42 peptides secreted to cell medium was analyzed using the solid phase sandwich Enzyme-Linked-Immuno-Sorbent Assay (ELISA)-kit from Invitrogen for detection of mouse βAmyloid 1-42. Potential cytotoxic effects of the compounds were assayed by measuring the ATP content (Via Light) from cell lysate.

Row | SMILES | IC50 [1] [nM] | IC50 [2] [nM]
1 | COc1cc(Nc2nc(N(C)CC3CC3)n(CC(C)(C)O)n2)ccc1-n1cnc(C)c1 [Example 5, 1-{5-[(Cyclopropylmethyl)(methyl)amino]-3-{[3-methoxy-4-(4-methyl-1H-imidazol-1-yl)-phenyl]amino}-1H-1,2,4-triazol-1-yl}-2-methylpropan-2-ol] | 79.4 | 
2 | COc1cc(Nc2nc(N(C)CC(C)(C)O)n(Cc3ccccc3)n2)ccc1-n1cnc(C)c1 [Example 4, 1-[(1-Benzyl-3-{[3-methoxy-4-(4-methyl-1H-imidazol-1-yl)phenyl]amino}-1H-1,2,4-triazol-5-yl)(methyl)amino]-2-methylpropan-2-ol] | 100 | 
3 | COc1cc(Nc2nc(NCC3CC3)n(C)n2)ccc1-n1cnc(C)c1 [Example 1, N^5-(Cyclopropylmethyl)-N^3-[3-methoxy-4-(4-methyl-1H-imidazol-1-yl)phenyl]-1-methyl-1H-1,2,4-triazole-3,5-diamine] | 79.4 | 158
4 | COc1cc(Nc2nc(N(C)Cc3ccccc3)n(CC(C)(C)O)n2)ccc1-n1cnc(C)c1 [Example 7, 1-{5-[Benzyl(methyl)amino]-3-{[3-methoxy-4-(4-methyl-1H-imidazol-1-yl)phenyl]amino}-1H-1,2,4-triazol-1-yl}-2-methylpropan-2-ol] | 15.8 | 20
5 | COc1cc(Nc2nc(NCc3ccccc3)n(CC(C)(C)O)n2)ccc1-n1cnc(C)c1 [Example 6, 1-[5-(Benzylamino)-3-{[3-methoxy-4-(4-methyl-1H-imidazol-1-yl)phenyl]amino}1H-1,2,4-triazol-1-yl]-2-methylpropan-2-ol] | 20 | 15.8
6 | COc1cc(Nc2nc(N(CC3CC3)CC3CC3)n(C)n2)ccc1-n1cnc(C)c1 [Example 2, 5-N,5-N-Bis(cyclopropylmethyl)-3-N-[3-methoxy-4-(4-methyl-1H-imidazol-1-yl)phenyl]-1-methyl-1H-1,2,4-triazole-3,5-diamine] | 63.1 | 
7 | COc1cc(Nc2nc(NCC3CC3)n(CC(C)C)n2)ccc1-n1cnc(C)c1 [Example 3, 5-N-(Cyclopropylmethyl)-3-N-[3-methoxy-4-(4-methyl-1H-imidazol-1-yl)phenyl]-1-(2-methylpropyl)-1H-1,2,4-triazole-3,5-diamine] | 63.1 | 
